Where a name gives a salt, the structure may show the parent alone. Read-outs that look alike come from different tables or passages of the source.
Tested on: behaviors of compound-treated mice
Assay: Neuropharmacological Assay (SmartCube)
Assay type: in vivo
Conditions: for minimal effective dose: Mus musculus, ip, 0.25 h, dose having 50% or more total activity in SmartCube, read-out: MED (minimal effective dose)
Procedure, shortened: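 Mice dosed i.p. 15 min before testing, with compound in N-methyl-2-pyrrolidone/PEG/propylene glycol, were video-recorded and algorithmically compared with reference-drug behavioral signatures. This gave class-match probabilities (antidepressant, anxiolytic, etc.) at the most efficacious of 3 doses. MED was defined as the dose with ≥50% total activity, usually tested across 0.3–30 mpk.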

[1] = i.p. 15 min before behavioral test, most efficacious dose(s) of 3 doses
[2] = SmartCube, i.p. 15 min before test, most efficacious dose(s)

Row | Compound | minimal effective dose (i.p.) | AD: ADHD (probability that activity matches class) [1] | AG: analgesic (probability that activity matches class) [1] | AX: anxiolytic (probability that activity matches class) [1] | CE: cognitive enhancer (probability that activity matches class) [1] | DP: anti-depressant (probability that activity matches class) [1] | MS: mood stabilizer (probability that activity matches class) [1] | PS: anti-psychotic (probability that activity matches class) [1] | SD: sedative hypnotic (probability that activity matches class) [1] | UN: uncharacterized CNS activity (probability that activity matches class) [1] | minimal effective dose | AD: ADHD (probability that activity matches class) [2] | AG: analgesic (probability that activity matches class) [2] | AX: anxiolytic (probability that activity matches class) [2] | CE: cognitive enhancer (probability that activity matches class) [2] | DP: anti-depressant (probability that activity matches class) [2] | MS: mood stabilizer (probability that activity matches class) [2] | PS: anti-psychotic (probability that activity matches class) [2] | SD: sedative hypnotic (probability that activity matches class) [2] | UN: uncharacterized CNS activity (probability that activity matches class) [2]
1 | NC[C@H]1OCCCc2c(-c3ccccn3)cccc21 [Compound 159, (S)-(6-(pyridin-2-yl)-1,3,4,5-tetrahydrobenzo[c]oxepin-1-yl)methanamine hydrochloride salt] | 10 to 30 mg/kg | + (LOQ ≤ + <5%) | + (LOQ ≤ + <5%) | + (LOQ ≤ + <5%) | + (LOQ ≤ + <5%) | + (LOQ ≤ + <5%) | + (LOQ ≤ + <5%) | + (LOQ ≤ + <5%) | + (LOQ ≤ + <5%) | + (LOQ ≤ + <5%) | – | – | – | – | – | – | – | – | – | –
2 | CNC[C@H]1OCCc2c1cccc2-n1ccnc1 [Compound 183, (S)-1-(5-(1H-Imidazol-1-yl)isochroman-1-yl)-N-methylmethanamine hydrochloride salt] | – | – | – | – | – | – | – | – | – | – | 3 to 10 mg/kg | + (LOQ ≤ + <5%) | + (LOQ ≤ + <5%) | + (LOQ ≤ + <5%) | + (LOQ ≤ + <5%) | ++++ (50% ≤ ++++) | + (LOQ ≤ + <5%) | + (LOQ ≤ + <5%) | + (LOQ ≤ + <5%) | ++ (5% ≤ ++ <25%)
3 | NC[C@@H]1OCCc2c1cccc2-n1ccnc1 [Compound 184, (R)-(5-(1H-Imidazol-1-yl)isochroman-1-yl)methanamine hydrochloride salt] | – | – | – | – | – | – | – | – | – | – | 10 to 30 mg/kg | + (LOQ ≤ + <5%) | + (LOQ ≤ + <5%) | ++ (5% ≤ ++ <25%) | + (LOQ ≤ + <5%) | + (LOQ ≤ + <5%) | + (LOQ ≤ + <5%) | + (LOQ ≤ + <5%) | + (LOQ ≤ + <5%) | + (LOQ ≤ + <5%)
4 | NC[C@H]1OCCc2c1cccc2-n1ccnc1 [Compound 185, (S)-(5-(1H-Imidazol-1-yl)isochroman-1-yl)methanamine hydrochloride salt] | – | – | – | – | – | – | – | – | – | – | 10 to 30 mg/kg | + (LOQ ≤ + <5%) | + (LOQ ≤ + <5%) | ++ (5% ≤ ++ <25%) | + (LOQ ≤ + <5%) | ++ (5% ≤ ++ <25%) | + (LOQ ≤ + <5%) | + (LOQ ≤ + <5%) | + (LOQ ≤ + <5%) | + (LOQ ≤ + <5%)
5 | CNC[C@@H]1OCCc2c1cccc2-n1cccn1 [Compound 186, (R)-1-(5-(1H-pyrazol-1-yl)isochroman-1-yl)-N-methylmethanamine] | – | – | – | – | – | – | – | – | – | – | 10 to 30 mg/kg | + (LOQ ≤ + <5%) | + (LOQ ≤ + <5%) | ++ (5% ≤ ++ <25%) | + (LOQ ≤ + <5%) | + (LOQ ≤ + <5%) | + (LOQ ≤ + <5%) | + (LOQ ≤ + <5%) | + (LOQ ≤ + <5%) | + (LOQ ≤ + <5%)
6 | CNC[C@H]1OCCc2c1cccc2-n1cccn1 [Compound 187, (S)-1-(5-(1H-pyrazol-1-yl)isochroman-1-yl)-N-methylmethanamine] | – | – | – | – | – | – | – | – | – | – | 3 to 10 mg/kg | ++ (5% ≤ ++ <25%) | + (LOQ ≤ + <5%) | + (LOQ ≤ + <5%) | + (LOQ ≤ + <5%) | ++++ (50% ≤ ++++) | + (LOQ ≤ + <5%) | + (LOQ ≤ + <5%) | + (LOQ ≤ + <5%) | + (LOQ ≤ + <5%)
7 | NC[C@@H]1OCCc2c1cccc2-n1cccn1 [Compound 188, (R)-(5-(1H-pyrazol-1-yl)isochroman-1-yl)methanamine hydrochloride salt] | – | – | – | – | – | – | – | – | – | – | 10 to 30 mg/kg | ++ (5% ≤ ++ <25%) | + (LOQ ≤ + <5%) | ++ (5% ≤ ++ <25%) | + (LOQ ≤ + <5%) | + (LOQ ≤ + <5%) | + (LOQ ≤ + <5%) | + (LOQ ≤ + <5%) | + (LOQ ≤ + <5%) | ++++ (50% ≤ ++++)
8 | NC[C@H]1OCCc2c1cccc2-n1cccn1 [Compound 189, (S)-(5-(1H-pyrazol-1-yl)isochroman-1-yl)methanamine hydrochloride salt] | – | – | – | – | – | – | – | – | – | – | 10 to 30 mg/kg | ++ (5% ≤ ++ <25%) | + (LOQ ≤ + <5%) | ++ (5% ≤ ++ <25%) | + (LOQ ≤ + <5%) | ++ (5% ≤ ++ <25%) | + (LOQ ≤ + <5%) | + (LOQ ≤ + <5%) | + (LOQ ≤ + <5%) | ++++ (50% ≤ ++++)

From patent US10780074B2, “Compounds and uses thereof” (Sunovion Pharmaceuticals Inc., priority 2017, dated 2020)
